# Measurements reported in publication PMC10945559, “Forgotten Natural Products: Semisynthetic Development of Blasticidin S As an Antibiotic Lead” (ACS Medicinal Chemistry Letters, 2024).
# Like-named read-outs stand apart in the source and are kept apart here.
# Assays:
# [1] = test system: MRC-5 lung fibroblast cells; assay: in vitro; assay type: cell-based, human; details: average of SI (CC50/IC50) over the bacteria tested
# Method: (§1) as a range from biological replicates. Inhibition curves were generated using Prism (GraphPad).
# (§2) The IC50 values reported in Table 2 are the average of the two biological replicates ± standard […]
# (§3) Cytotoxicity Assay Procedure
# (§4) Human lung fibroblast cells, MRC -5 (CCL-171), were cultured at 37℃ with 5% CO2 and were plated at 5000 cells/well in a 96 -well plate. Compounds 1, 2, and 15-22 were initially prepared at concentrations of 5.12 mg/mL in a vehicle of 50% DMSO. Dilutions of the compounds (4 – 512 μg/mL) were then prepared in growth medium containing Dulbecco’s modified Eagle’s medium (DMEM) with high glucose, L -glutamine, and sodium pyruvate supplemented with 10% fetal bovine serum (FBS), 1% non -essential amino acids, and 0.1% gentamicin sulfate, and 25mM HEPES. The vehicle (50% DMSO) was also prepared via the sa me dilution series to serve as a control. Growth media was removed from the cells and replaced with the same volume of each compound dilution. Cells were incubated for 24 h , after which CellTiter 96® AQueous One Solution Reagent was added to each well as recommended by the manufacturer’s protocol (Promega CellTiter 96 AQueous One Solution Cell Proliferation Assay) and further incubated for 4 h. After incubation, absorbance was measured at 490 nm on an Infinite M plex multimode microplate reader with i -control Tecan software. Viability was calculated by subtracting media only absorbance values and normalizing to the vehicle control at each concentration. The presented data is one assay performed in triplicate that is representative of multiple trials. Data for the 256 and 512 μg/mL concentrations were removed from analysis due to vehicle toxicity […]
# (§5) CC50 concentrations were determined via the ED50 Plus v1.0 software (https://archive.org/details/ed50v10_zip).
# (§6) Figure S41. The effect of compounds on cell viability. The lines represent non -linear regression curves, and error bars represent means ± […]
# (§7) SD (n=3). […]
# in vitro = assay type: cell-based, human; details: human; MRC-5 (lung fibroblast); 24 h; one biological replicate (n = 3); read-out: CC50 for human cells
# Method: as §1, §2, §3, §4, §5, §6, §7
# [2] = test system: Acinetobacter baumannii ATCC 17978; assay: Broth microdilution antibacterial assay; assay type: cell-based
# Method: (§8) Antibacterial Assay Procedure
# (§9) Broth Microdilution Assays
# (§10) Media and solutions were autoclaved or sterile filtered prior to use and manipulations were carried out in a laminar flow hood. Antibacterial testing was performed in polypropylene 96 -well flat bottom plates. The minimal inhibitory concentration of blasticidin S ( 1) hydrochloride, P10 (2), and derivatives 15–22 were assessed against Staphylococcus aureus ΔNorA, S. aureus 8810, methicillin-resistant S. aureus (MRSA) ATCC 43300, Enterococcus faecalis ATCC 29212, vancomycin-resistant Enterococcus, Klebsiella pneumoniae ATCC 29665, Pseudomonas aeruginosa, and Acinetobacter baumannii ATCC 17978 using serial dilutions. Doxycycline (Gold Bio) as a positive control and the vehicle as a negative control. Stock solutions of each compound were prepared at 5.12 mg/mL in 50% DMSO/water and serially diluted in 50% DMSO/water to create master plates. From the master plates, 10 μL of each dilution was applied to test plates using a Bravo automated liquid transfer system (Agilent). Bacteria previously grown overnight (37 °C, 120 – 200 RPM), in LB broth were diluted to an OD600 of 0.0 5 in cation-adjusted Mueller-Hinton broth, grown to an OD600 of ~0.5, and diluted to an OD600 of 0.004 in cation-adjusted Mueller-Hinton broth. These diluted cultures were applied to the test plates (190 μL per test well) resulting in final concentrations of the test compounds of 256–2 μg/mL. Growth controls (wells with inoculated media but no vehicle or test compounds) were included to assess any potential toxicity from the vehicle. The plates were incubated at 37 °C for 16–18 h, except for VRE and E. faecalis, which were incubated at 37 °C for 24 h. Inhibition was determined by measuring the optical density at 600 nm (OD600) with a Cytation 3 plate reader (BioTek). The optical density measurements were normalized to the positive and negative controls and the vehicle and growth controls were compared and found to be indistinguishable, indicating no toxicity from the vehicle used. The MIC was the lowest concentration that inhibited >90% of growth. Two biological replicates were performed in duplicate. MIC values are reported […]
# as §1, §2, §3, §4, §5
# [3] = test system: Klebsiella pneumoniae ATCC 29665; assay: Broth microdilution antibacterial assay; assay type: cell-based
# Method: as §8, §9, §10, §1, §2, §3, §4, §5
# [4] = test system: vancomycin-resistant Enterococcus (VRE); assay: Broth microdilution antibacterial assay; assay type: cell-based
# Method: as §8, §9, §10, §1, §2, §3, §4, §5
# Pseudomonas aeruginosa = assay: Broth microdilution antibacterial assay; assay type: cell-based
# Method: as §8, §9, §10, §1, §2, §3, §4, §5
# [5] = test system: Enterococcus faecalis ATCC 29212; assay: Broth microdilution antibacterial assay; assay type: cell-based
# Method: as §8, §9, §10, §1, §2, §3, §4, §5
# [6] = test system: Staphylococcus aureus ΔNorA; assay: Broth microdilution antibacterial assay; assay type: cell-based
# Method: as §8, §9, §10, §1, §2, §3, §4, §5
# S. aureus 8810 = assay: Broth microdilution antibacterial assay; assay type: cell-based, Staphylococcus aureus
# Method: as §8, §9, §10, §1, §2, §3, §4, §5
# [7] = test system: methicillin-resistant S. aureus (MRSA) ATCC 43300; assay: Broth microdilution antibacterial assay; assay type: cell-based, Staphylococcus aureus
# Method: as §8, §9, §10, §1, §2, §3, §4, §5
# [8] = set-up: method as in PMID 5842139; details: cited from earlier work
# [9] = Acinetobacter baumannii, ATCC17978
# [10] = Klebsiella pneumoniae, ATCC29665
smiles,measurement,setting,value
"CN(CC[C@H](N)CC(=O)N[C@H]1C=C[C@H](n2ccc(N)nc2=O)O[C@@H]1C(=O)O)C(=N)N [Compound 1, blasticidin S]",average selectivity index,[1],0.4
same,CC50 at 24 h,in vitro,20.1 µg/mL
same,IC50,[2]; [9],104 ± 25 µg/mL
same,MIC,[2]; [9],> 256 µg/mL
same,Selectivity index (CC50/IC50),[2]; MRC-5 CC50 / A. baumannii IC50,0.2
same,IC50,[3]; [10],42.3 ± 3.5 µg/mL
same,MIC,[3]; [10],128 µg/mL
same,Selectivity index (CC50/IC50),[3]; MRC-5 CC50 / K. pneumoniae IC50,0.5
same,IC50,"[4]; Enterococcus, VRE",58 ± 9.4 µg/mL
same,MIC,"[4]; Enterococcus, VRE, 24 h",256 µg/mL
same,MIC,"[4]; Enterococcus, VRE, read-out: Average Activity against VRE",256 µg/mL
same,Selectivity index (CC50/IC50),[4]; MRC-5 CC50 / VRE IC50,0.3
same,Selectivity index (CC50/IC50),Pseudomonas aeruginosa; MRC-5 CC50 / P. aeruginosa IC50,0.3
same,IC50,Pseudomonas aeruginosa; Pseudomonas aeruginosa,61 ± 6 µg/mL
same,MIC,Pseudomonas aeruginosa; Pseudomonas aeruginosa,256 µg/mL
same,IC50,"[5]; Enterococcus faecalis, ATCC29212",26.3 ± 13 µg/mL
same,MIC,"[5]; Enterococcus faecalis, ATCC29212, 24 h",32 to 64 µg/mL
same,MIC,"[5]; Enterococcus faecalis, ATCC29212, read-out: Average Activity against E. faecalis",64 µg/mL
same,Selectivity index (CC50/IC50),[5]; MRC-5 CC50 / E. faecalis IC50,0.8
same,Selectivity index (CC50/IC50),[6]; MRC-5 CC50 / S. aureus ΔNorA IC50,0.1
same,IC50,[6]; Staphylococcus aureus,140 ± 8.7 µg/mL
same,MIC,[6]; Staphylococcus aureus,> 256 µg/mL
same,Selectivity index (CC50/IC50),S. aureus 8810; MRC-5 CC50 / S. aureus IC50,0.6
same,IC50,"S. aureus 8810; Staphylococcus aureus, 8810",33.2 ± 0.8 µg/mL
same,MIC,"S. aureus 8810; Staphylococcus aureus, 8810",> 256 µg/mL
same,MIC,"S. aureus 8810; Staphylococcus aureus, 8810, read-out: Average Activity against S. aureus",> 256 µg/mL
same,Selectivity index (CC50/IC50),[7]; MRC-5 CC50 / MRSA IC50,0.3
same,IC50,[7]; Staphylococcus aureus,59.7 ± 7.8 µg/mL
same,MIC,[7]; Staphylococcus aureus,256 µg/mL
same,MIC,"[7]; Staphylococcus aureus, read-out: Average Activity against MRSA",256 µg/mL
same,pKa,[8]; primary amine,8.0
same,pKa,[8]; protonated guanidine,> 12.5
